Data on three compounds can be found in publication PMC12190659, “A Near-Infrared Fluorescent Probe for Specific Imaging of Lymph Node Metastases in Ovarian Cancer via Active Targeting of the Gonadotropin-Releasing Hormone Receptor” (Biomolecules, 2025).

“Also recorded” adds a separate entry of the source.

Data set [1] concerns lymphatic metastases in early-stage ovarian cancer. Further details: method as in PMID 38006759. Conditions: compared with systematic lymphadenectomy; cited from earlier work. The source says:
Lymph node metastases are commonly observed in advanced ovarian cancer and are associated with a poor survival rate. Systematic lymphadenectomy seems necessary to achieve complete tumor reduction. […] In a prospectively randomized, controlled trial of lymphadenectomy in patients with primary ovarian cancer (FIGO stage IIB through IV) with macroscopically complete resection and clinically negative lymph nodes (LION trial), systematic pelvic and p ...

Another data set relates to folate receptor alpha. To be noted: cited from earlier work. The source says:
Real-time guidance provided by intraoperative fluorescence imaging helps improve the resection rate of tumors. Over the past two decades, researchers have attempted to develop tumor-specific fluorophores for intraoperatively detecting ovarian cancer. Pafolacianine (OTL38), a fluorescent tracer that targets folate receptor alpha, is the first FDA-approved agent for fluorescence-guided ovarian cancer surgery. In a phase III study (NCT03180307), additional cancer lesions were identified in 33% of patients with known or suspected ovarian cancer who were scheduled to undergo cytored ...

Data set [2] deals with subcutaneous A2780 (GnRHR-positive) ovarian cancer. The data set is described as follows: In vivo NIR fluorescence imaging, subcutaneous xenograft model. The arrangement: species or system BALB/c nude mice. To be noted: 2.0 mg/kg, tail vein, n = 3. As for the experimental part: (§1) Mouse models with subcutaneous xenografts: A total of 5 × 10^6 A2780 cells were subcutaneously injected into the flanks of the mice. The tumors were allowed to grow until their diameter reached approximately 5 mm before treatment.
(§2) The tumor-bearing mice were injected with GnRHa-PEG-Rh760 at a dose of 2.0 mg/kg body weight (n = 3). PEG-Rh760 was used as a non-targeted control probe. The probes were formulated using phosphate buffered saline (PBS) solutions with a pH of 7.4. For mice with subcutaneous xenografts and lymph node metastasis, the probe was administered via tail vein injection. For mice with peritoneal metastasis, the probe was injected intraperitoneally into the lower right abdominal region. In vivo NIR fluorescence imaging (Ex/Em = 740 nm/790 nm) was performed at different time points post-injection via the IVIS Lumina K Imaging system (PerkinElmer, Waltham, USA). Moreover, tumors, lymph nodes, and major organs were immediately dissected from sacrificed mice and imaged under NIR fluorescence. The fluorescence signals were quantified as the average radiant efficiency ([p/s/cm^2/sr]/[μW/cm^2]) via Living Image software (version 4.5, PerkinElmer, Waltham, USA).

Another data set addresses T1, GnRHR (Homo sapiens, UniProt P30968).
T1 construct: mouse model bearing subcutaneous A2780 (GnRHR-positive) ovarian cancer; endogenous in cells; host or cells: A2780 and ES-2 human ovarian cancer cells grown as xenografts or lymph node metastases in BALB/c nude mice; frozen tissue sections
T1 sequence (P30968 1-328): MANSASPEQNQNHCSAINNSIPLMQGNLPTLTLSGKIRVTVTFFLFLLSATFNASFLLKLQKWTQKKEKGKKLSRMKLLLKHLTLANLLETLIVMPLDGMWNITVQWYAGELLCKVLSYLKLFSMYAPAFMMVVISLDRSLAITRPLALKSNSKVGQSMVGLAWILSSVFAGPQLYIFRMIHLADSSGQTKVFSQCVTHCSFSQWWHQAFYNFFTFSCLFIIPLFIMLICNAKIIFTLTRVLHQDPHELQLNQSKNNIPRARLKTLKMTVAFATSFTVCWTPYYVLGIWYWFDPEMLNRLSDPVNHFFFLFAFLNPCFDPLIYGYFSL
Kind of data set: Confocal fluorescence microscopy of frozen tissue sections. Format: in vivo, BALB/c nude mice. An excerpt: To examine the binding of probes to ovarian cancer tissues, tumors, lymph nodes and skeletal muscle were obtained from sacrificed mice and then embedded in frozen section embedding medium. The frozen tissues were sectioned, fixed and mounted. Nuclei were labeled with DAPI. Fluorescence images were captured via confocal fluorescence microscopy (TCS SP5, Leica, Wetzlar, Germany).

Data set [3] concerns lymph node metastases of ES-2-luciferase ovarian cancer. Kind of data set: In vivo and ex vivo NIR fluorescence imaging, lymph node metastasis model. The arrangement: species or system BALB/c nude mice. To be noted: 2.0 mg/kg, tail vein. As for the experimental part: Mouse models with lymph node metastasis: A total of 2 × 10^6 ES-2-luciferase cells were injected into the unilateral footpads of the mice. The lymph node metastases were monitored via bioluminescence imaging. Spontaneous metastases to popliteal (PO) and inguinal (IN) lymph nodes as well as occasional metastases to iliac (IL) and sciatic (SC) lymph nodes were observed after 2–3 weeks of primary tumor growth. The lymph node tissues were confirmed by histological examination and immunohistochemical staining for CK7.
as §2
To verify the specificity of the NIR fluorescence imaging of GnRHa-PEG-Rh760, bioluminescence imaging of A2780-luciferase and ES-2-luciferase tumor-bearing mice was performed via the IVIS Lumina K Imaging system (PerkinElmer, Waltham, USA). The mice were injected with 150 mg/kg body weight D-luciferin (YEASEN Biotech, Shanghai, China) and imaged at 15 min post-injection. Moreover, tumors, lymph nodes, and major organs were immediately dissected from sacrificed mice and imaged. Bioluminescence signals were quantified as the total flux (p/s) via Living Image software (version 4.5, PerkinElmer, Waltham, USA).

Data set [4] can be described thus: UV-visible absorption and fluorescence emission spectra. Format: physicochemical. Conditions: DMSO solution. The protocol: The probe GnRHa-PEG-Rh760 was synthesized as shown in the scheme in Figure 1A. The NIR fluorophore Rh760 and its derivatives Rh760-PAZ and Rh760-GA were synthesized as previously reported. All probes were synthesized by Guoping Pharmaceutical (Hefei, China). Briefly, the sequence of the GnRHa peptide (D-2-Nal-D-4-Cl-Phe-D-3-Pal-Ser-Tyr-D-Cit-Leu-Arg-Pro-D-Ala-NH2) was prepared via the standard Fmoc solid-phase peptide synthesis method. After peptide chain coupling, piperidine was added, and the mixture was allowed to react for 20 min to remove Fmoc. Then, Fmoc-PEG2000-COOH and Rh760 were added in sequence and allowed to react until the resin test was colorless. The resin was washed with methanol and then shaken for 2 h with cutting fluid. The resulting reaction mixture was precipitated with ice-cold ether, yielding a blue–green solid. PEG-Rh760 without GnRHa peptide modification was synthesized as the control. The final products were evaluated by mass spectrometry (MS). The UV–visible absorption spectra were measured with a LAMBDA 750 spectrometer (PerkinElmer, Waltham, USA), and the fluorescence emission spectra were measured with a QuantaMaster 40 fluorospectrometer in DMSO solution.

Data set [5] has as its system peritoneal metastatic A2780-luciferase ovarian cancer. The data set is described as follows: In vivo and ex vivo NIR fluorescence imaging, peritoneal metastasis model. The arrangement: species or system BALB/c nude mice. To be noted: 2.0 mg/kg, intraperitoneal injection, n = 3. The protocol: Mouse models with peritoneal metastasis: A total of 1 × 10^7 A2780-luciferase cells were injected into the abdominal cavities of the mice. The tumors were allowed to grow for 2 weeks and monitored via bioluminescence imaging using the IVIS Lumina K Imaging system (PerkinElmer, Waltham, USA).
as §2, with “For mice with peritoneal metastasis, the probe was injected intraperitoneally into the lower right abdominal region.” left out
To verify the specificity of the NIR fluorescence imaging of GnRHa-PEG-Rh760, bioluminescence imaging of A2780-luciferase and ES-2-luciferase tumor-bearing mice was performed via the IVIS Lumina K Imaging system (PerkinElmer, Waltham, USA). […]

Data set [6] is described as follows: In vivo safety evaluation. To be noted: 2.0 mg/kg, tail vein, n = 3. The arrangement: species or system mice. As for the experimental part: The mice were injected with GnRHa-PEG-Rh760 at a dose of 2.0 mg/kg body weight via the tail vein (n = 3). PEG-Rh760 and vehicle were used as controls. The body weights of the mice were continuously monitored. The mice were sacrificed after 6 days. Routine blood tests were conducted to assess red blood cells (RBCs), white blood cells (WBCs), and platelets (PLTs). Blood biochemistry tests were conducted to assess alanine transaminase (ALT), aspartate transaminase (AST), blood urea nitrogen (BUN), and creatinine (CREA) levels. Tissue sections from organs, including the heart, lung, liver, spleen, kidney, and muscle, were stained with hematoxylin and eosin (H&E) for histopathological analysis.

Data set [7] concerns subcutaneous A2780 ovarian cancer. The data set is described as follows: Ex vivo fluorescence biodistribution, subcutaneous xenograft model. Format: in vivo, BALB/c nude mice. As for the experimental part:
as §1, §2
Figure S1 Mass spectra of GnRHa-PEG-Rh760 (A) and PEG-Rh760 (B).
Figure S2 Biodistribution of GnRHa-PEG-Rh760 in mice bearing subcutaneous A2780 ovarian tumors. The mice were injected with GnRHa-PEG-Rh760 via the tail vein and monitored for 120 h. The fluorescence intensities of the ex vivo tumors and organs were measured (n=3). […]

As for `CC1(C)C(/C=C/C=C/C=C/C=C2\N(CCCCS(=O)(=O)O)c3ccc4ccccc4c3C2(C)C)=[N+](CCCCS(=O)(=O)[O-])c2ccc3ccccc3c21` [indocyanine green], the “detection rate of sentinel lymph node mapping” value in [1] is given as “low detection rate”.
In the case of `CC1(C)C(/C=C/C2=C(Oc3ccc(C[C@H](NC(=O)c4ccc(NCc5cnc6nc(N)[nH]c(=O)c6n5)cc4)C(=O)[O-])cc3)C(=C/C=C3\N(CCCCS(=O)(=O)[O-])c4ccc(S(=O)(=O)[O-])cc4C3(C)C)/CCC2)=[N+](CCCCS(=O)(=O)[O-])c2ccc(S(=O)(=O)[O-])cc21.[H+].[H+].[H+].[H+]` [pafolacianine, Pafolacianine], in the data set with folate receptor alpha (phase I to III studies), the false-positive lymph nodes entry is recorded as “false-positive lymph nodes were also observed”. Also, the “patients in whom additional cancer lesions were identified” value in the data set with folate receptor alpha (phase III study NCT03180307, versus white light assessment and palpation) is on record as 33%.
For “D-2-Nal-D-4-Cl-Phe-D-3-Pal-Ser-Tyr-D-Cit-Leu-Arg-Pro-D-Ala-NH2 [GnRHa-PEG-Rh760, GnRHR-targeted NIR fluorescent probe: GnRH analog peptide conjugated with Rh760 fluorophore and polyethylene glycol (PEG)]”, the “NIR fluorescence in subcutaneous tumors” value in data set [2] (Ex/Em 740/790 nm) is given as “High fluorescence intensity”. Moreover, in [2], the “duration of stronger fluorescence signals in tumors post-injection” value is given as “up to 72 h”. The “binding in tumor sections (versus skeletal muscle)” value on GnRHR (frozen sections from subcutaneous A2780 tumor-bearing mice injected with the probe) is “specific binding”. Further, the “binding in metastatic lymph node sections” value on GnRHR (frozen sections of lymph nodes from ES-2-luciferase model) was “specific binding”. For the same compound, in [3] (n = 3), the “NIR fluorescence in metastatic lymph nodes” value is “well identified and detected by NIR fluorescence”; the “NIR fluorescence in normal lymph nodes” value is reported as “no NIR fluorescence signals were detected”. Besides, in data set [3] (n = 3, p < 0.05), the “average fluorescence intensity in metastatic versus normal lymph nodes” value is listed as “significantly greater”. In data set [4], this compound displayed a maximum absorption peak of 780 nm and a maximum emission peak of 805 nm. In [5], the “NIR fluorescence signals in peritoneal metastases” value is on record as “high fluorescent signals”. Further, the “body weight change versus control group” value in data set [6] (6 days) is recorded as “No significant body weight loss”. Further, in data set [6] (after 6 days), the “hematologic analysis: RBC, WBC, PLT, ALT, AST, BUN, CREA levels” value was “no significant changes” and the “histopathology (H&E) of heart, lung, liver, spleen, kidney, muscle” value is “No notable tissue injury”. In addition, in data set [7] (ex vivo), the “NIR fluorescence in normal ovarian tissues” value is given as “weak NIR fluorescence”. The “biodistribution (organs of accumulation)” value in data set [7] (ex vivo fluorescence of tumors and organs, 2.0 mg/kg, tail vein, monitored for 120 h, n = 3) is “mainly accumulated in the tumor and liver tissues; also recorded: predominant accumulation in the tumor and liver, followed by the kidneys”. Further, the “clearance of the probe” value in data set [7] (ex vivo fluorescence of tumors and organs, 2.0 mg/kg, tail vein, n = 3) is listed as “gradually cleared at 96 h post-injection”. Also, the “tumor-to-background (skeletal muscle) fluorescence ratio” value in [7] (ex vivo, 2.0 mg/kg, tail vein, n = 3) was “high ratio of tumor-to-background”.
